Assay results published in patent publication US11629201B2, “PSMA-binding agents and uses thereof” (ITM Isotope Technologies Munich SE, priority 2017, dated 2023).
Several values for one entry are separate records, joined by “and”; a condition that tells them apart may be missing. Equal values may be shown once.

Tests used:
mouse plasma proteins = assay: Ultrafiltration assay, binding to mouse plasma proteins; type: in vitro ADME
Procedure: Filter Assay. […] In addition, the radioligands were diluted in PBS (buffer solution without proteins) as a control experiment. Aliquots of the solutions were loaded onto an ultrafiltration device and centrifuged. The filtered activity was measured with a γ-counter and used for calculating the plasma protein-bound activity (retained on the filter membrane) as the percentage of total added activity. […] Statistical analysis (one-way ANOVA with Bonferroni's multiple comparison post-test) was performed using GraphPad Prism software, version 7. A p-value of <0.05 was considered statistically significant.

PC-3 PIP tumor = assay: Therapy study in PC-3 PIP tumor-bearing mice; type: in vivo; conditions: for TGDI2 / TGDI5: control = 1
Text: Mice of Groups B and D received 2 MBq of the radioligand (1 nmol/mouse), whereas mice of Groups C and E received 5 MBq of the radioligand (1 nmol/mouse). The mice were monitored by measuring body weights and the tumor size every other day over 12 weeks. Mice were euthanized when pre-defined endpoint criteria were reached, or when the study was terminated at Day 84. The relative body weight (RBW) was defined as [BWx/BW0], where BWx is the body weight in gram at a given day x and BW0 the body weight in gram at day 0. The tumor dimension was determined by measuring the longest tumor axis (L) and its perpendicular axis (W) with a digital caliper. The tumor volume (V) was calculated according to the equation [V=0.5*(L*W2)]. The relative tumor volume (RTV) was defined as [TVx/TV0], where TVx is the tumor volume in mm3 at a given day x and TV0 the tumor volume in mm3 at Day 0.
The efficacy of the radionuclide therapy was expressed as the tumor growth delay (TGDx), which was calculated as the time required for the tumor volume to increase x-fold over the initial volume at the Day 0. The tumor growth delay index [TGDIx=TGDx(T)/TGDx(C)] was calculated as the TGDx ratio of treated mice (T) over control mice (C) for a 2-fold (x=2, TGD2) and 5-fold (x=5, TGD5) increase of the initial tumor volume. As a measure to identify undesired side effects, body weights were compared at the day when the first control mouse had to be euthanized. After euthanasia, kidneys, liver and the brain were collected and weighed. The organ ratios (kidney-to-brain and liver-to-brain) were calculated using the organ masses obtained at the day of euthanasia.
The data was analyzed for significance as indicated in the result part using a one-way ANOVA with Tukey's multiple comparison post-test using GraphPad Prism software (version 7). A value of p<0.05 was considered statistically significant. Survival analysis was performed with Kaplan-Meier curves and a log-rank tests (Mantel Cox).

[1] = test system: PSMA-positive PC-3 PIP cells; assay: Cell uptake and internalization in PSMA-positive PC-3 PIP cells; type: cell-based
[2] = Stability of radioligands over time by RP-HPLC; type: physicochemical
Procedure: Quality control of ^64Cu-labeled PSMA ligands (250 MBq in 120 μL; 50 MBq/nmol) was determined immediately after preparation (t=0 h) using RP-HPLC. The reaction mixtures were diluted in saline to an activity concentration of 250 MBq/500 μL and incubated at room temperature. The integrity of the compounds was investigated over one day (t=1 h, 4 h and 24 h, respectively). The amount of intact radioligand was quantified by integration of the product peak of the HPLC chromatograms in relation to the sum of all radioactive peaks of degradation products of unknown structure and traces of released ^64Cu which were set to 100%.
The stability of the radioligands was determined over time using RP-HPLC. […] The radiolabeling efficiency of the ligands was determined immediately after preparation (t=0 h) and the integrity of the compounds was investigated after incubation for various periods (t=1 h, 4 h and 24 h, respectively) at room temperature. The amount of intact compound was quantified by integration of the product peak of the HPLC chromatograms in relation to the sum of all radioactive peaks of degradation products of unknown structure and traces of free ^177Lu, which were set to 100%.

[3] = test system: PSMA-negative PC-3 flu cells; assay: Cell uptake in PSMA-negative PC-3 flu cells; type: cell-based
Procedure: Cells were grown in RPMI cell culture medium supplemented with 10% fetal calf serum, L-glutamine, antibiotics and puromycin (2 μg/mL) at 37° C. and 5% CO2 (standard conditions). Routine cell culture was performed twice a week using PBS/EDTA (2 mM) for washing the cells and trypsin for detachment of the cells. The cells were seeded in 12-well plates (˜3×10^5 cells in 2 mL RPMI medium/well) allowing adhesion and growth overnight at standard conditions. The supernatant was removed and the cells washed with PBS pH 7.4 prior to the addition of RPMI medium without supplements (975 μL/well). […] After incubation, the cells were washed three times with ice-cold PBS and the total uptake of the radioligands was determined (PSMA-bound fraction on the surface and internalized fraction). The fraction of internalized radioligand was evaluated in cells washed with ice-cold PBS, followed by a 10 min incubation with stripping buffer (0.05 M glycine stripping buffer in 100 mM NaCl, pH 2.8) and an additional washing step with ice-cold PBS. […] After homogenization of the cell suspensions, the protein concentration was determined for each sample using a Micro BCA Protein Assay kit (Pierce, Therma Scientific). The results were expressed as percentage of total added radioactivity per […]. […]

[4] = test system: PC-3 PIP/flu tumor-bearing mice; assay: Biodistribution studies in PC-3 PIP/flu tumor-bearing mice; conditions: for Tumor-to-blood / Tumor-to-kidney / Tumor-to-liver / Tu-to-muscle: PC-3 PIP tumor
[5] = n-Octanol/PBS distribution coefficient (log D); type: physicochemical; conditions: radiolabeled ligand, 50 MBq/nmol, PBS pH 7.4
Procedure: The radioligand (0.5 MBq; 10 pmol, 25 μL) was then added to a reagent tube containing 1475 μL of PBS pH 7.4 and 1500 μL of n-octanol. The vials were vortexed vigorously followed by a centrifugation step for phase separation.
Determination of n-Octanol/PBS Distribution Coefficients (Log D Values). The distribution coefficients (log D values) of the ^64Cu-labeled radioligands (50 MBq/nmol) were determined by a shake-flask method using liquid-liquid extraction followed by phase separation as previously reported. Three experiments were performed with five replicates for each radioligand. Statistical significance of the data (p<0.05) was evaluated using an unpaired t-test (GraphPad Prism software, version 7).
Determination of n-Octanol/PBS Distribution Coefficients (Log D Values). […] A sample of the radioligands was mixed with phosphate-buffered saline (PBS) and n-octanol followed by vigorous vortexing. […] Three experiments were performed with five replicates for each compound.

human plasma proteins = assay: Ultrafiltration assay, binding to human plasma proteins; conditions: different dilutions of human plasma
Procedure: Therefore, the compounds were labeled with ^177Lu at a specific activity of 50 MBq/nmol and incubated in human plasma samples or PBS at room temperature. The free and plasma-bound fractions were separated using a centrifree ultrafiltration device (4104 centrifugal filter units [Millipore]; 30000 Da nominal molecular weight limit, methylcellulose micropartition membranes). The incubated solution was loaded to the ultrafiltration device and centrifuged at 2500 rpm for 40 min at 20° C. Samples from the filtrate were taken an analyzed for radioactivity in a gamma-counter. The amount of plasma-bound compound was calculated as the fraction of radioactivity measured in the filtrate relative to the corresponding loading solution (set to 100%).
Determination of Albumin-binding Properties. The binding of the radioligands to human plasma proteins was determined by an ultrafiltration assay. […] Three independent experiments were performed in duplicates with both radioligands and the data was fitted to a semi-logarithmic plot (non-linear regression, one-site, specific binding) to obtain the half maximum binding (B50) in GraphPad Prism software (version 7).
The ^177Lu-labeled PSMA ligands (50 MBq/nmol) were diluted in mouse plasma (Rockland, USA) and human plasma (Stiftung Blutspende SRK Aargau-Solothurn, Switzerland), respectively, and incubated for 15 min at room temperature. In addition, the radioligands were diluted in PBS (buffer solution without proteins) as a control experiment. Aliquots of the solutions were loaded onto an ultrafiltration device and centrifuged. The filtered activity was measured with a γ-counter and used for calculating the plasma protein-bound activity (retained on the filter membrane) as the percentage of total added activity. […] Statistical analysis (one-way ANOVA with Bonferroni's multiple comparison post-test) was performed using GraphPad Prism software, version 7. A p-value of <0.05 was considered statistically significant.

[6] = test system: PC-3 PIP/flu tumor-bearing mice; assay: PET/CT imaging of PC-3 PIP/flu tumor-bearing mice; type: in vivo; conditions: 16 h after injection
Procedure: PET/CT Imaging Studies. PET/CT experiments were performed at 1 h, 4 h and 24 h after injection of the radioligands (5 MBq/l nmol). Mice were injected into a lateral tail vein with the respective radioligand (5 MBq, 1 nmol, 100 μL) diluted in saline containing 0.05% BSA. PET/CT scans were performed using a small-animal PET/CT scanner (G8, Perkin Elmer, Massachusetts, U.S.) as previously reported. The PET scans lasted for 10 min and were followed by a CT scan of 1.5 min. During the in vivo scans, the mice were anesthetized with a mixture of isoflurane and oxygen. Reconstruction of acquired data was performed using the software of the provider of the G8 scanner. All images were prepared using VivoQuant post-processing software (version 3.0, inviCRO Imaging Services and Software, Boston USA). The images were prepared by cutting 2% of the lower scale to make the tumors, liver and kidneys best visible.

[7] = non-decay-corrected biodistribution data up to 192 h p.i.

O=C([O-])CN1CCN(CC(=O)[O-])CCN(CC(=O)NCC2CCC(C(=O)N[C@@H](Cc3ccc4ccccc4c3)C(=O)NCCCC[C@H](NC(=O)N[C@@H](CCC(=O)O)C(=O)O)C(=O)O)CC2)CCN(CC(=O)[O-])CC1.[177Lu+3] (some centres unmarked) [^177Lu-PSMA-617, reference compound]
plasma protein-bound fraction (mouse plasma proteins): 9.3±1.1% | first mouse of group euthanized (PC-3 PIP tumor; 2 MBq/mouse (Groups B, D)): 12 days | median survival (PC-3 PIP tumor; 2 MBq/mouse (Groups B, D)): 19 days | TGDI2 (PC-3 PIP tumor; 2 MBq/mouse (Groups B, D)): 0.8 and 0.8 ± 0.3 | TGDI5 (PC-3 PIP tumor; 2 MBq/mouse (Groups B, D)): 1.4 and 1.4 ± 0.1 | first mouse of group euthanized (PC-3 PIP tumor; 5 MBq/mouse (Groups C, E)): 26 days | median survival (PC-3 PIP tumor; 5 MBq/mouse (Groups C, E)): 32 days | TGDI2 (PC-3 PIP tumor; 5 MBq/mouse (Groups C, E)): 2.1 ± 0.3 | TGDI5 (PC-3 PIP tumor; 5 MBq/mouse (Groups C, E)): 2.5 ± 0.3 | cell uptake ([1]; 4 h incubation, PC-3 PIP cells): 58% | internalized fraction ([1]; 4 h incubation, PC-3 PIP cells): 12% | intact compound ([2]; after 4 h, absence of L-ascorbic acid): ~86% | intact compound ([2]; after 24 h, absence of L-ascorbic acid): < 2% | intact compound ([2]; after 24 h, with L-ascorbic acid): > 98% | uptake in PC-3 flu cells [3]: below 0.5% | PC-3 PIP Tumor ([4]; 4 h p.i.): ~56 % IA/g | Kidneys ([4]; 24 h p.i.): < 1 % IA/g | Tumor-to-blood ([4]; 24 h p.i.): 2730 ± 195 | Tumor-to-kidney ([4]; 24 h p.i.): 49 ± 3.7 | Tumor-to-liver ([4]; 24 h p.i.): 528 ± 51 | Tumor-to-blood ([4]; 48 h p.i.): 3776 ± 585 | Tumor-to-kidney ([4]; 48 h p.i.): 81 ± 11 | Tumor-to-liver ([4]; 48 h p.i.): 710 ± 97 | PC-3 PIP Tumor ([4]; 192 h p.i.): ~20 % IA/g | AUC PC-3 PIP tumor [4, 7]: 3691 ± 156 % IA/g · h | AUC blood [4, 7]: 52 ± 1.5 % IA/g · h | AUC kidneys [4, 7]: 99 ± 11 % IA/g · h | AUC liver [4, 7]: 6.2 ± 1.6 % IA/g · h | Ratio of AUCs AUCTu-to-AUCBl ([4]; tumor to blood): 71 | Ratio of AUCs AUC-Tu-to-AUC-Ki ([4]; tumor to kidneys): 37 | Ratio of AUCs AUCTu-to-AUCLi ([4]; tumor to liver): 592 | n-octanol/PBS distribution coefficient (log D value) [5]: −4.4±0.15

Cc1ccc(CCCC(=O)NCCCC[C@H](NC(=O)CCC(C(=O)O)N2CCN(CC(=O)O)CCN(CC(=O)O)CC2)C(=O)NC[C@H]2CC[C@H](C(=O)N[C@H](Cc3ccc4ccccc4c3)C(=O)NCCCC[C@@H](NC(=O)N[C@H](CCC(=O)O)C(=O)O)C(=O)O)CC2)cc1 (some centres unmarked) [^64Cu-PSMA-ALB-89, metal not drawn]
cell uptake ([1]; 2 h): ~46% | internalized fraction ([1]; 2 h): ~14% | cell uptake ([1]; 4 h): ~52% | internalized fraction ([1]; 4 h): ~14% | half-maximum binding (B50), [HSA]-to-[radioligand] ratio (human plasma proteins): 454 and 770 | Tu-to-muscle ([4]; 1 h p.i.): 9.0 ± 1.13 | Tumor-to-blood ([4]; 1 h p.i.): 0.91 ± 0.02 | Tumor-to-kidney ([4]; 1 h p.i.): 0.40 ± 0.02 | Tumor-to-liver ([4]; 1 h p.i.): 3.37 ± 0.31 | Tu-to-muscle ([4]; 4 h p.i.): 36.3 ± 2.25 | Tumor-to-blood ([4]; 4 h p.i.): 3.61 ± 0.30 | Tumor-to-kidney ([4]; 4 h p.i.): 0.70 ± 0.04 | Tumor-to-liver ([4]; 4 h p.i.): 13.3 ± 1.20 | Blood ([4]; 24 h p.i.): < 3.2 % IA/g | PC-3 PIP Tumor ([4]; 24 h p.i.): 97.1±7.01 % IA/g | Tu-to-muscle ([4]; 24 h p.i.): 200±38.2 | Tumor-to-blood ([4]; 24 h p.i.): 31.3 ± 3.82 | Tumor-to-kidney ([4]; 24 h p.i.): 2.68 ± 0.36 | Tumor-to-liver ([4]; 24 h p.i.): 23.6 ± 3.37 | logD ([5]; n-octanol/PBS): -2.3 ± 0.7 | tumor-to-kidney ratio of accumulated radioligand (visual examination) [6]: > 1
